# Data from patent US20090018136A1, “METHODS AND COMPOSITIONS FOR THE TREATMENT OF VASCULAR DISEASE” (priority 2005, published 2009).
# Legend:
# [1] = tested on: subjects with sickle cell disease; experiment: Phase 2a sickle cell disease study: endothelial function by EndoPAT; format: in vivo, human; conditions: preliminary findings, sickle cell disease patients treated with BH4
# Procedure: This Phase 2a multicenter, open-label, dose-escalation study is designed to assess the safety and biologic activity of once daily (for 2.5, 5, and 10 mg/kg/day doses) or twice daily (for the 20 mg/kg/day dose) oral administration of 4 escalating doses of 6R-BH4 to subjects with SCD. During an optional extension phase, the study will assess the safety, tolerability, and efficacy of extended treatment with 6R-BH4. Subjects will receive oral, once-daily (for 2.5, 5, and 10 mg/kg/day) or twice-daily (for 20 mg/kg/day) doses of 6R-BH4 during a 16-week dose-escalation phase, with dose levels increasing within subjects every 4 weeks, as follows: 2.5, 5, 10, and 20 mg/kg/day. Prior to dose escalation, the each subject will be evaluated with respect to safety profile during the previous dose level, using predefined parameters. […] Endothelial function will be evaluated using Doppler echocardiogram (DE), peripheral arterial tonometry (EndoPAT), and exhaled nitric oxide (NO). The symptoms of SCD (frequency of sickle cell crises and vaso-occlusive crises), along with changes in the 6-minute-walk (MW) test, will be monitored. […] The number of tablets will be determined by the dose of sapropterin dihydrochloride, rounded to the nearest 100 mg. […]
# forearm blood flow = conditions: patients with diabetes or hypercholesterolemia but not normal subjects; cited from earlier work
# brachial artery = experiment: Study 2: brachial artery flow-mediated and nitroglycerin-mediated vasodilation; format: in vivo, human
# Procedure: Brachial artery endothelium-dependent and -independent function was measured using ultrasound, at baseline, after 8 weeks of BH4 treatment, and 1 week after discontinuation of therapy. The technique was carried out as described in Prasad et al., Circulation, 2000. 101(20): p. 2349-54. Briefly, using an 11 MHz high resolution ultrasound transducer (Acuson Inc) in a temperature-controlled room, brachial diameter was measured above the antecubital fossa in the non-dominant arm. Flow-mediated vasodilation (FMD) was measured by inflating a BP cuff on the forearm to >200 mm Hg for 5 minutes, deflating rapidly, and measuring brachial diameter at 1 minute after onset of hyperemia. For all measurements three diameters were measured on three separate end-diastolic frames and averaged. To obtain the maximal brachial artery dilation that represents FMD the following equation was used: (average diameter with hyperemia−average baseline diameter)÷average baseline diameter X 100. To measure the endothelium-independent vasodilator response, subjects were given sublingual nitroglycerin 0.4 mg and the brachial diameter was measured as above after 5 minutes. To obtain endothelium-independent vasodilation the following equation was used: (average diameter post nitroglycerin-average baseline diameter)÷average baseline diameter X 100. For both study 1 and study 2, the primary end point after statistical analysis was a reduction of systolic, mean and diastolic BP during BH4 therapy. Secondary end points included improvement of endothelial function as FMD. Linear mixed effects models for repeated measures data were used to analyze change in BP from baseline to end of treatment period and differences in change between 100 mg and 200 mg dose groups. A quadratic term for week was included in the model to account for non-linear trends over the treatment period. Dose, week and week squared were the main effect terms in the model; dose by week and dose by week squared were the interaction terms in the model. Significant interaction terms indicate a difference in the pattern of change between the two dose groups. FMD data was analyzed using the two-tailed student t-test. […] In study 2, brachial artery endothelium-dependent and independent function was measured, as described above, at the end of the 2-week vitamin C run-in period, at the end of 4 weeks of oral BH4 therapy, and 4 weeks after discontinuation of BH4.
smiles,measurement,setting,value
"C[C@H](O)[C@H](O)[C@H]1CNc2nc(N)[nH]c(=O)c2N1 [BH4, tetrahydrobiopterin]",endothelial function as measured by the EndoPAT device,[1],improvement
same,NO-mediated effects on forearm blood flow,forearm blood flow,augment
same,FMD,"brachial artery; Study 2, 100 mg b.i.d., after therapy, 5.3±2.5% before, p=0.55, no significant change",6.2±3.5%
same,FMD,"brachial artery; Study 2, 200 mg b.i.d., after 4 weeks of therapy, 3.7±3% at start, p=0.016, n=7",7.1±4.9%
same,FMD,"brachial artery; Study 2, 200 mg b.i.d., one month after discontinuation, p=0.6 compared to baseline",3.2±1.1%
same,"change in nitroglycerin-mediated, endothelium-independent vasodilation","brachial artery; Study 2, either group",no significant change
